System: pruritus of the scalp
Test: Double-blind, placebo-controlled clinical evaluation of scalp itching intensity with shampoos containing 0.5% bisabolol
Type: in vivo, human
Details: for itching intensity, Mean +/− SEM: scale of 0-10, washed once a day, volunteers with pruritus of the scalp; for itching intensity, Mean +/− SEM / itching intensity, Δ % mean: shampoo with 0.5% by weight bisabolol; for itching intensity, Δ % mean: D14 versus D0 (T0)
Source text: Comparison of the improvement in skin soothing effect using shampoos formulated with bio-bisabolol, chemically-produced bisabolol and plant-derived bisabolol. Samples of the bio-bisabolol prepared according to Example 1, a commercially-available synthetic bisabolol and a bisabolol derived from chamomile oil were incorporated into shampoo formulations at 0.5% by weight. An untreated sample of the shampoo was included as placebo. A double-blind, inter-individual and placebo-controlled clinical evaluation was performed on 80 volunteers (both men and women of age 18 and over). The subjects had Fitzpatrick skin types I to IV, and all suffered from pruritus of the scalp. The volunteers washed and rinsed their hair once a day and itching intensity was evaluated on days 1 and 14, using a scale of 0-10, where 0 represents no itching and 10 represents […].

Compound | itching intensity, Mean +/− SEM (D0) | itching intensity, Mean +/− SEM (D14) | itching intensity, Δ % mean [%] | reduction in scalp irritation in comparison with the placebo group (after 14 days of application, p<0.1) [%] | reduction in scalp irritation in comparison with the placebo (in words) (after 14 days of application)
CC(C)=CCC[C@@](C)(O)[C@@H]1CC=C(C)CC1 [Example 1 bio-bisabolol, (−)-α-bisabolol] | 4.3 ± 0.4 | 0.3 ± 0.2 | −93 | 25 | 
CC(C)=CCC[C@](C)(O)[C@@H]1CC=C(C)CC1 [Plant bisabolol] | 4.8 ± 0.5 | 1.5 ± 0.4 | −69 |  | did not show any significant reduction
CC(C)=CCC[C@](C)(O)[C@@H]1CC=C(C)CC1 [Synthetic bisabolol] | 4.4 ± 0.5 | 1.3 ± 0.4 | −70 |  | did not show any significant reduction
